Key:
Assay in all cases: Dundee protein kinase screen
Assay type in all cases: biochemical
[1] = molecular target: T1, MST2 (Homo sapiens, UniProt Q13188); details: MST2, 1µM; read-out: %Remaining activity at 1µM NU6300
T1 sequence (Q13188 1-491): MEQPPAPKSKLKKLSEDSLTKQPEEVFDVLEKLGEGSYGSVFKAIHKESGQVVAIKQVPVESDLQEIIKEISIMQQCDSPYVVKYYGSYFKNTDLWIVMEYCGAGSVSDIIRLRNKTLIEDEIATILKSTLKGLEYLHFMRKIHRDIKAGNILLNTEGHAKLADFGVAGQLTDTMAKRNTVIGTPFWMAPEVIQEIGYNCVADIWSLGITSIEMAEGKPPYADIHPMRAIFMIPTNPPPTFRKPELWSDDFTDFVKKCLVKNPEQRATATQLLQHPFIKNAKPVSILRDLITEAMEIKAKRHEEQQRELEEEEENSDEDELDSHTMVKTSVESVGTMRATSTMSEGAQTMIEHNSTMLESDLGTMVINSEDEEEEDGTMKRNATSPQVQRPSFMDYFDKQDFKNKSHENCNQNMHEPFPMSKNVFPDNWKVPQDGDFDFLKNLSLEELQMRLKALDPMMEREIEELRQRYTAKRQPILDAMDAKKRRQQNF
In short: (§1)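 Selectivity panel of 131 protein kinases, inhibitor tested at a single concentration of 1 µM; values are % kinase activity remaining, mean of duplicates. Re-test of selected kinases used 0.5 µM in the standard format and again after a 4 hour pre-incubation with the inhibitor.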

[2] = molecular target: MEKK1 (Homo sapiens, UniProt Q13233); details: MEKK1, 1µM; read-out: %Remaining activity at 1µM NU6300
In short: as §1

[3] = molecular target: PRK2 (Homo sapiens, UniProt Q16513); details: PRK2, 1µM; read-out: %Remaining activity at 1µM NU6300
In short: as §1

[4] = molecular target: T2, ASK1 (Homo sapiens, UniProt Q99683); details: ASK1, 1µM; read-out: %Remaining activity at 1µM NU6300
T2 sequence (Q99683 1-1374): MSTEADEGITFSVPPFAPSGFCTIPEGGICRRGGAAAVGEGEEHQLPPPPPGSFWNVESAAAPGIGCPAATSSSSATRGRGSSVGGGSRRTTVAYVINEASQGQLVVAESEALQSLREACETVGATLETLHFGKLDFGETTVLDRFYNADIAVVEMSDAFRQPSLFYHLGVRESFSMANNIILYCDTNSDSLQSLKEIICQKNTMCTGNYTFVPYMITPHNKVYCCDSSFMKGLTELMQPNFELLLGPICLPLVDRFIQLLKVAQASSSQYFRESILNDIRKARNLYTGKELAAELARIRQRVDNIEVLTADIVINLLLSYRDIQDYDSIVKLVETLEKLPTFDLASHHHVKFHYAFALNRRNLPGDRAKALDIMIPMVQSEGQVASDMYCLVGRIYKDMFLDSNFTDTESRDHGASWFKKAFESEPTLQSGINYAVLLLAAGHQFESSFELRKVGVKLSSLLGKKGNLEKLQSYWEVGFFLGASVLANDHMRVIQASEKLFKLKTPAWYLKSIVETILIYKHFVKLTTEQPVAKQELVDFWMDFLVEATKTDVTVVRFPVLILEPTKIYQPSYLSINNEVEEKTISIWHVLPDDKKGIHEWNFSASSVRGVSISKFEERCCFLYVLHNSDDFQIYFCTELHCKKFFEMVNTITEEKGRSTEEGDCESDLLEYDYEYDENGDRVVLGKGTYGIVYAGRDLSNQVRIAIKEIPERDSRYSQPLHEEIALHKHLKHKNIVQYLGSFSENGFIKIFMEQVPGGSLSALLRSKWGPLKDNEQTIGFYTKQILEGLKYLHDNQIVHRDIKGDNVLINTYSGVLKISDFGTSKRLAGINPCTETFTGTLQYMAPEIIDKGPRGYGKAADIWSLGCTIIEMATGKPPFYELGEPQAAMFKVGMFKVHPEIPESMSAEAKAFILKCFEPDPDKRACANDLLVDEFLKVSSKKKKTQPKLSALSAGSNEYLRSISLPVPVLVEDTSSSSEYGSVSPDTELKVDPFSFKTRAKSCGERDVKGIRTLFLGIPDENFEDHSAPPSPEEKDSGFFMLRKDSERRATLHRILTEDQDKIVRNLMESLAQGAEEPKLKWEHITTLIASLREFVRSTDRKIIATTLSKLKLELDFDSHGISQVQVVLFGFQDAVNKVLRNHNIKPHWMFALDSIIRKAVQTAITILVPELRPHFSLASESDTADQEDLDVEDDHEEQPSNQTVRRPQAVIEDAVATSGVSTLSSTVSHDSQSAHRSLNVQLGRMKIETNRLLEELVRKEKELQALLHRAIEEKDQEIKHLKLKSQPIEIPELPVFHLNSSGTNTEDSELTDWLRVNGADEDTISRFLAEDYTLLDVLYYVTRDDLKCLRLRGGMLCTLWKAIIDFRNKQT
In short: as §1

[5] = molecular target: EPH-B2 (Homo sapiens, UniProt P29323); details: EPH-B2, 1µM; read-out: %Remaining activity at 1µM NU6300
In short: as §1

Sequence of MEKK1 (Q13233 whole entry): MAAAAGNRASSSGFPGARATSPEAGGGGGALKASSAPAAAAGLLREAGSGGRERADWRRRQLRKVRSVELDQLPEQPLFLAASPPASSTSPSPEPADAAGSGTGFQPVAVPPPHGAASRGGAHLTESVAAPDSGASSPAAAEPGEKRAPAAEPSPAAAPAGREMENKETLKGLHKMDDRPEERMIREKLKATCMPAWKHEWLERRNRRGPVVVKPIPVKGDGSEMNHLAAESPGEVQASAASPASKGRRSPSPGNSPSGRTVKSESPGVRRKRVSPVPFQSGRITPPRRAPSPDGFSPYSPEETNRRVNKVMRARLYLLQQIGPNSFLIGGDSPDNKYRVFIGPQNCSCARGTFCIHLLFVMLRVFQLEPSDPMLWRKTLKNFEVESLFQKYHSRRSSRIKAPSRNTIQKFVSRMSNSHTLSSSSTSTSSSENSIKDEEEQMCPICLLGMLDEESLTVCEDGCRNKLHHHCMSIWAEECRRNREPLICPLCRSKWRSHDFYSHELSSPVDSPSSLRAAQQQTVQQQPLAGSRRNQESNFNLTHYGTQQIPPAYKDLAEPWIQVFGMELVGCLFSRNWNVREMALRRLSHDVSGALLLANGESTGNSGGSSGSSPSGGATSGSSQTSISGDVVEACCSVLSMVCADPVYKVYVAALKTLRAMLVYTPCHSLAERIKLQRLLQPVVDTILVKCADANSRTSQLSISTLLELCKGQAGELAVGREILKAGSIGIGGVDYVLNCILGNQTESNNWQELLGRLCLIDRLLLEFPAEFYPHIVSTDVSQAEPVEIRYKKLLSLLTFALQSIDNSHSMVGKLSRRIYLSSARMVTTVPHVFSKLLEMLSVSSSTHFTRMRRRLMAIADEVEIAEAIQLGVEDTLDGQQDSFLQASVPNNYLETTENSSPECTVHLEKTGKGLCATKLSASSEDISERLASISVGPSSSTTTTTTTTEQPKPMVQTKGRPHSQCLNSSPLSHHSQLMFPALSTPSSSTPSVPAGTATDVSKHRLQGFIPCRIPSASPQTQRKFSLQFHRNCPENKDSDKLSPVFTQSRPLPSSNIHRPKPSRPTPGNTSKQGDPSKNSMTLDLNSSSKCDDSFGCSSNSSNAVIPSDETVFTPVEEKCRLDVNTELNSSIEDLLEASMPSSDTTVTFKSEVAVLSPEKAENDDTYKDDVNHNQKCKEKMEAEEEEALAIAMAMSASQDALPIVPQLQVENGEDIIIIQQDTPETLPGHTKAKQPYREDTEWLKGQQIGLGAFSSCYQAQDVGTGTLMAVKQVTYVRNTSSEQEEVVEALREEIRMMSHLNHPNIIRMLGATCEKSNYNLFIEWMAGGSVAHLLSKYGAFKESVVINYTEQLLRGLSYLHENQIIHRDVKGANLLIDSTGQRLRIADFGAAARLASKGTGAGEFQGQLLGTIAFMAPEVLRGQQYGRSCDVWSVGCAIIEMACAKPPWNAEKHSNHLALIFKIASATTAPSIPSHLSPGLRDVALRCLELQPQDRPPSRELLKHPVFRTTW
Sequence of PRK2 (Q16513 whole entry): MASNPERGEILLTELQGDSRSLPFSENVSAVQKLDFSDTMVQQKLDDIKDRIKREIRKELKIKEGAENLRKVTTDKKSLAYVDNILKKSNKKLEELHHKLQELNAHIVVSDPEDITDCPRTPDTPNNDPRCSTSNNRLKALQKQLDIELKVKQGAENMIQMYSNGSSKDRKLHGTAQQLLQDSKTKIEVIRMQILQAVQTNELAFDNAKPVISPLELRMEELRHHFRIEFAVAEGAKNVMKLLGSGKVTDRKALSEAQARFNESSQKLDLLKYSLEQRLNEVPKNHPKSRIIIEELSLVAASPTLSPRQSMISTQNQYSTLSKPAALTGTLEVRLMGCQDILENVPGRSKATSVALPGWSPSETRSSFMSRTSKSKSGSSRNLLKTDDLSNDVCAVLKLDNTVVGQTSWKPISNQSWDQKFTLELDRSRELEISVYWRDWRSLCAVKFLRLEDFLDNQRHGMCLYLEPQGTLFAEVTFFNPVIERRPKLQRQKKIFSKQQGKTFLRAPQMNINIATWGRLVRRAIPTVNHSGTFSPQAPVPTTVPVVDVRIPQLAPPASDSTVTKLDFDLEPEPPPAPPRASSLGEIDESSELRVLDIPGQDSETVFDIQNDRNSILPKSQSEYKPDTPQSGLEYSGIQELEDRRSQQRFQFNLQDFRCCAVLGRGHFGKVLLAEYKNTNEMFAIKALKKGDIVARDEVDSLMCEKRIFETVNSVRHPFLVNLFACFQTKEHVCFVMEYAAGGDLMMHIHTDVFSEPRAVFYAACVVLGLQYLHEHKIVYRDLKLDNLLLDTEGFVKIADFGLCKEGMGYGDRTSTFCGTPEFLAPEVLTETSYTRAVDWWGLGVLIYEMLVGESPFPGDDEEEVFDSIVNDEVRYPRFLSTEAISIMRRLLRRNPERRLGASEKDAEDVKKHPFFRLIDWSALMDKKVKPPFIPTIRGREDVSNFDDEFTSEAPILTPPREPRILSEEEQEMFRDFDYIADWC
Sequence of EPH-B2 (P29323 19-1055): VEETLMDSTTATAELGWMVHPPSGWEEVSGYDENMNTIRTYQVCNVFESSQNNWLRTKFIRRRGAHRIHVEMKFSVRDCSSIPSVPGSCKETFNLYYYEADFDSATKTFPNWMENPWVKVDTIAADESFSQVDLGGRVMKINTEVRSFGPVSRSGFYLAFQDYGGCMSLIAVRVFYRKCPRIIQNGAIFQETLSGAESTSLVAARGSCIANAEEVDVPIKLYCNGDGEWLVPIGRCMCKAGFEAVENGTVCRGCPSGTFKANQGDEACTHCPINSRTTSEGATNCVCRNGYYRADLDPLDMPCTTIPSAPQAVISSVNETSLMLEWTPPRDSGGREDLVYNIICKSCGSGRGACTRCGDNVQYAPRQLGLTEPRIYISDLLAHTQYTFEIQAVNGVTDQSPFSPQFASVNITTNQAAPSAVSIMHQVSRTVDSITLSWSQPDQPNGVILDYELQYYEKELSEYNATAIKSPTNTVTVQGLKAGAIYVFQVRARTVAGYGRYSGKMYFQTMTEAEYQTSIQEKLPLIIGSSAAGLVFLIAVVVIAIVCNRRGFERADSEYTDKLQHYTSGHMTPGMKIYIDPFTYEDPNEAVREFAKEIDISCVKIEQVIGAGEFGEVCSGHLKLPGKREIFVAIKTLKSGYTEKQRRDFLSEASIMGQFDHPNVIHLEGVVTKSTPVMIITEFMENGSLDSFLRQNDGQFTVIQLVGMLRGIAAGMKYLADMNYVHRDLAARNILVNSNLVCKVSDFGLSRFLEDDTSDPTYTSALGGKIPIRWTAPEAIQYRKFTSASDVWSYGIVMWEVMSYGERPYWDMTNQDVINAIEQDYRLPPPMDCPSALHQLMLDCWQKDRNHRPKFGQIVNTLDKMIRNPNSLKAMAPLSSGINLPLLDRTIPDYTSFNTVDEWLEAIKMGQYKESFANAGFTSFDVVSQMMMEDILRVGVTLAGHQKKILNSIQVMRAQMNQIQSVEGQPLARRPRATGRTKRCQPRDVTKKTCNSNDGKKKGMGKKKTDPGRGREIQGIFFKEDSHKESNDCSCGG

C=CS(=O)(=O)c1ccc(Nc2nc(OCC3CCCCC3)c3nc[nH]c3n2)cc1 [NU6300, 6-(cyclohexylmethoxy)-N-(4-(vinylsulfonyl)phenyl)-9H-purin-2-amine]
remaining activity at 1 µM [1]: 41% | remaining activity at 1 µM [2]: 89% | remaining activity at 1 µM [3]: 50% | remaining activity at 1 µM [4]: 49% | remaining activity at 1 µM [5]: 96%
